#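 48-hour exposure; five concentrations; linearly interpolated endpoints. At the GI50, growth is halved. TGI is the concentration that stops growth completely.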
# Assays:
# Test in all cases: NCI tumour cell line growth inhibition, 48 h
# [1] = test system: SK-OV-3 ovarian
# [2] = test system: K-562 leukemia
# [3] = test system: TK-10 renal
# [4] = test system: T-47D breast
# [5] = test system: RXF 393 renal
# [6] = test system: COLO 205 colon
# [7] = test system: MDA-MB-231 breast
# [8] = test system: SNB-75 CNS
# [9] = test system: U251 CNS
# [10] = test system: SW-620 colon
# [11] = test system: UACC-62 melanoma
# [12] = test system: OVCAR-8 ovarian
# [13] = test system: A549 NSCLC
# [14] = test system: SR leukemia
# [15] = test system: SN12C renal
# [16] = test system: SK-MEL-5 melanoma
# [17] = test system: UO-31 renal
# [18] = test system: SK-MEL-28 melanoma
# [19] = test system: ACHN renal
# [20] = test system: HOP-62 NSCLC
# [21] = test system: MOLT-4 leukemia
# [22] = test system: UACC-257 melanoma
# [23] = test system: BT-549 breast
# [24] = test system: KM12 colon
# [25] = test system: 786-0 renal
# [26] = test system: HCT-116 colon
# [27] = test system: NCI-H226 lung
# [28] = test system: M14 melanoma
# [29] = test system: LOX IMVI melanoma
# [30] = test system: NCI-H522 lung
# [31] = test system: NCI/ADR-RES ovarian
# [32] = test system: HT29 colon
# [33] = test system: HCT-15 colon
# [34] = test system: NCI-H23 lung
# [35] = test system: DU-145 prostate
# [36] = test system: HOP-92 NSCLC
# [37] = test system: HS 578T breast
# [38] = test system: IGROV1 ovarian
# [39] = test system: OVCAR-3 ovarian
# [40] = test system: SNB-19 CNS
# [41] = test system: SF-539 CNS
# [42] = test system: A498 renal
# [43] = test system: OVCAR-4 ovarian
# [44] = test system: MALME-3M melanoma
# [45] = test system: MDA-MB-468 breast
# [46] = test system: CAKI-1 renal
# [47] = test system: MDA-MB-435
# [48] = test system: MCF7 breast
# [49] = test system: SF-295 CNS
# [50] = test system: HL-60(TB) leukemia
# [51] = test system: EKVX NSCLC
# [52] = test system: SK-MEL-2 melanoma
# [53] = test system: OVCAR-5 ovarian
# [54] = test system: PC-3 prostate
# [55] = test system: HCC-2998 colon
# [56] = test system: RPMI-8226 leukemia
# [57] = test system: SF-268 CNS
# [58] = test system: CCRF-CEM leukemia
# [59] = test system: NCI-H460 lung
structure (smiles),measurement,setting,value
Cc1ccc(-c2cc(C(=O)N=Nc3c(O)[nH]c4ccc(F)cc34)c3ccccc3n2)cc1,GI50,[1],18.9 µM
same,TGI,[1],38.5 µM
same,GI50,[2],4.27 µM
same,TGI,[2],> 100 µM
same,GI50,[3],19.6 µM
same,TGI,[3],36.1 µM
same,GI50,[4],11 µM
same,TGI,[4],54.2 µM
same,GI50,[5],7.77 µM
same,TGI,[5],22.5 µM
same,GI50,[6],15.7 µM
same,TGI,[6],34.5 µM
same,GI50,[7],3.42 µM
same,TGI,[7],13.6 µM
same,GI50,[8],10.5 µM
same,TGI,[8],33.3 µM
same,GI50,[9],4.09 µM
same,TGI,[9],18.2 µM
same,GI50,[10],5.53 µM
same,TGI,[10],26 µM
same,GI50,[11],9.81 µM
same,TGI,[11],22.7 µM
same,GI50,[12],4.72 µM
same,TGI,[12],33.2 µM
same,GI50,[13],5.21 µM
same,TGI,[13],22.6 µM
same,GI50,[14],8.17 µM
same,TGI,[14],> 100 µM
same,GI50,[15],3.73 µM
same,TGI,[15],16.5 µM
same,GI50,[16],15.2 µM
same,TGI,[16],30.1 µM
same,GI50,[17],12.3 µM
same,TGI,[17],24.8 µM
same,GI50,[18],10.2 µM
same,TGI,[18],22.3 µM
same,GI50,[19],12.7 µM
same,TGI,[19],26 µM
same,GI50,[20],4.48 µM
same,TGI,[20],18.6 µM
same,GI50,[21],4.29 µM
same,TGI,[21],> 100 µM
same,GI50,[22],16.7 µM
same,TGI,[22],33.5 µM
same,GI50,[23],10.7 µM
same,TGI,[23],25.7 µM
same,GI50,[24],12.5 µM
same,TGI,[24],56 µM
same,GI50,[25],16.6 µM
same,TGI,[25],39.1 µM
same,GI50,[26],3.36 µM
same,TGI,[26],13.8 µM
same,GI50,[27],17.4 µM
same,TGI,[27],37.2 µM
same,GI50,[28],11.6 µM
same,TGI,[28],28 µM
same,GI50,[29],4.1 µM
same,TGI,[29],16.6 µM
same,GI50,[30],11.8 µM
same,TGI,[30],27.5 µM
same,GI50,[31],3.53 µM
same,TGI,[31],27.5 µM
same,GI50,[32],5.23 µM
same,TGI,[32],19.2 µM
same,GI50,[33],2.39 µM
same,TGI,[33],15.3 µM
same,GI50,[34],4.2 µM
same,TGI,[34],18.4 µM
same,GI50,[35],15.6 µM
same,TGI,[35],52.1 µM
same,GI50,[36],11.5 µM
same,TGI,[36],30.8 µM
same,GI50,[37],7.2 µM
same,TGI,[37],66.3 µM
same,GI50,[38],12.5 µM
same,TGI,[38],28.5 µM
same,GI50,[39],8.75 µM
same,TGI,[39],30.4 µM
same,GI50,[40],17.3 µM
same,TGI,[40],42.3 µM
same,GI50,[41],2.64 µM
same,TGI,[41],8.66 µM
same,GI50,[42],19 µM
same,TGI,[42],34.1 µM
same,GI50,[43],5.68 µM
same,TGI,[43],26.6 µM
same,GI50,[44],8.77 µM
same,TGI,[44],21.6 µM
same,GI50,[45],9.09 µM
same,TGI,[45],23.6 µM
same,GI50,[46],12.2 µM
same,TGI,[46],27.3 µM
same,GI50,[47],11.1 µM
same,TGI,[47],27.8 µM
same,GI50,[48],4.6 µM
same,TGI,[48],23 µM
same,GI50,[49],11.4 µM
same,TGI,[49],26.1 µM
same,GI50,[50],15.4 µM
same,TGI,[50],54 µM
same,GI50,[51],10.8 µM
same,TGI,[51],27.4 µM
same,GI50,[52],17 µM
same,TGI,[52],35 µM
same,GI50,[53],10.2 µM
same,TGI,[53],23.9 µM
same,GI50,[54],9.49 µM
same,TGI,[54],91 µM
same,GI50,[55],15.1 µM
same,TGI,[55],32.7 µM
same,GI50,[56],10.6 µM
same,TGI,[56],> 100 µM
same,GI50,[57],8.11 µM
same,TGI,[57],49.5 µM
same,GI50,[58],2.11 µM
same,TGI,[58],> 100 µM
same,GI50,[59],3.96 µM
same,TGI,[59],19.8 µM

# From PubChem BioAssay (NCI)
